According to patent publication US11638427B2, “Methods and compositions for altering secondary metabolites in plants” (Impello Biosciences, Inc, priority 2020, dated 2023):

Legend:
[1] = system: high-CBD hemp varieties Stormy Daniels and BaOX; assay: Field foliar applications of MDJ, MeJA and CJ on high-CBD hemp, cannabinoid analysis; type: in vivo, Cannabis spp.; settings: 7.5 mM foliar, four applications every 14 days in flowering
Procedure: However, MDJ is not known to have any significant bioactivity in planta and is not an endogenously produced phytohormone in cannabis, so it was unknown whether MDJ would afford the same functionality as MeJA. Similarly, CJ has likewise been relatively under-investigated as a plant elicitor despite being a decarboxylation product of Jasmonic Acid. Here, the effect of MDJ and CJ were analyzed (in addition to MeJA) in order to determine any difference in the effect of these treatments on field-grown high-CBD hemp varieties.
A hemp field experiment was conducted during the flowering phase of plant development in a private research field located in North Carolina. Sixty (60) plants from two distinct plant variety populations, Stormy Daniels and BaOX were selected for the trial. Each group of 60 plants was randomly divided into three groups of 20 plants and labeled accordingly to indicate the treatment group (T1, T2, T3). All plants were cultivated identically and subjected to approximately the same environmental conditions. Control, untreated plants were taken from the same field. Plants were treated according to treatment group, and each treatment group was subjected to four (4) applications of its respective treatment, with the first treatments applied on what was considered to be the first day of the flowering phase and repeated then again every successive 14 days up until just prior to harvest. Treatments were as follows: Control group=Control, Treatment 1=MDJ, Treatment 2=MeJA, Treatment 3=CJ.
All treatments were prepared in a stock (concentrated, non-aqueous) form by Impello Biosciences in their lab in Loveland, Colo. and labelled respectively prior to the start of the experiment. All treatments were prepared at a high stock concentration that allowed dilution by the applicator with 2 liters of water to a final 7.5 mM concentration of active ingredient (i.e., MeJA, MDJ, or CJ) for each treatment; 15-mL centrifuge tubes were used as preparation and storage vessels for each of the treatments. Preparation of the stock solutions ensured that the applicator could store the solutions prior to use at 4° C. to minimize degradation and allow for dilution immediately prior to use. In the stock containers, 2 mL of TWEEN®-20 was added to each respective elicitor compound as an emulsifier in order to reach a final oil-in-water emulsion once diluted with a concentration of 7.5 mM active ingredient and 0.1% surfactant (i.e., TWEEN®-20) v/v.
Plants were grown to maturity and 5 plants from each treatment and control group were sampled on Sep. 23, 2019. Care was taken to ensure samples were similar in appearance and spatial location between plants to minimize unintended variance in sample quality. The apical cola for each plant was harvested, and specifically, the top 3″ of the main cola. Yield data was not collected in this study, but no obvious differences in plant size or appearance were noted. Samples were submitted for chemical analysis (Avazyme, Inc, NC).
All models were linear models fit with Group (treatment) as the independent variable and the response variable was the corresponding compound. Data was filtered and comparison between treatments were conducted using the emmeans package and Tukey HSD for post-hoc corrections. Statistical significance was defined by a level of significance of p<0.05 in the Tukey test. Total cannabinoids included CBN, Δ9-THC, CBDV, CBG, CBD, CBC, CBDA, CBGA, THCA, and THCV. Total THC and total CBD were calculated by accounting for the additional weight of the carboxyl group in the acidic forms and adding those to the neutral/non-acidic forms.

CBDRx Cherry variety = assay: MeJA vs MDJ weekly foliar spray, terpene analysis; type: in vivo, Cannabis spp.; settings: 4.25 mM or 7.5 mM weekly foliar spray
Procedure: (§1) To directly compare the efficacy of MeJA and MDJ, MeJA and MDJ were applied as a foliar spray once per week at either 4.25 mM or 7.5 mM concentrations to two high-CBD cannabis varieties. Clones from CBDRx Cherry variety and Sunrise Genetics' F2 variety were transplanted into 1-gallon pots with Red's soil and put into vegetative light cycle (18L/6D) on 4/12/21. All plants had two weeks in vegetative light cycle and were moved to flowering light cycle (12L/12D) on 4/26/21 for six weeks. Foliar applications started in week three of growth, [at flower initiation?]. Plants were then moved to a flowering light cycle. Each treatment group comprises three plants, including the control. Throughout the growing period, all plants were watered with JACK'S NUTRIENTS®. Plants were harvested on 6/7/21.
(§2) Treatments: Each concentration was prepared from a one molar stock solution with TWEEN®-20. Sprays were prepared weekly and diluted with RO water. Each plant was sprayed till dripping, each receiving approximately 75-100 ml.

[2] = system: Sunrise Genetics' F2 variety; assay: MeJA vs MDJ weekly foliar spray, terpene analysis; type: in vivo, Cannabis spp.; settings: for eucalyptol / guaiol / α-bisabolol: 4.25 mM or 7.5 mM MDJ, or 7.5 mM MeJA; for D-Limonene / Linalool / cis-B-ocimene: all applications (4.25 mM and 7.5 mM)
Procedure: as §1, §2

Penicillium spp. = assay: Mold growth on jasmonate-infused plates, mold isolated from orange; type: cell-based; settings: various concentrations in plates
Procedure: (§3) MDJ (TCI, CAS No.: 24851-98-7) and CJ were infused into potato dextrose agar (PDA, VWR Cat No.: 90003-494) petri dishes (100×15 mm VWR, Cat No: 25384-094) at concentrations ranging from 1 mM, 4.25 mM, and 10 mM. Each treatment was prepared using a technical grade stock solution of pure chemical (CJ or MDJ) diluted with TWEEN®-20 (VWR, CAS No.: […]). Culturable oyster mushroom and seedling mold served to create fungal mycelial plugs using a sterile 1 mL pipette tip (Eppendorf, Cat No.: 022491458) held upside down. The tips were used to make circle excisions (i.e., fungal plugs) from a mycelial mat grown on PDA with no biochemical infusions. Fungal pugs were then transferred to PDA infused with varying concentrations of CJ or MDJ, and control plates (no CJ or MDJ infusion) to monitor fungal growth at room temperature over time.
(§4) Based on the above results in Cannabis spp., additional fungi from various crops was sampled and tested. Plates comprising various concentrations of MDJ or MJ were prepared as described above.

[3] = system: Cladosporium cladosporioides; assay: Mold growth on jasmonate-infused plates, mold isolated from tomato; type: cell-based; settings: various concentrations in plates
Procedure: as §3, §4

Botrytis spp. = assay: Mold growth on jasmonate-infused plates, mold isolated from strawberry; type: cell-based; settings: 1 mM, 5 mM, 10 mM, or 20 mM in plates
Procedure: as §3, §4

strawberries = assay: Fruit MDJ dips, 2 weeks observation; type: in vivo
[4] = 4.25 mM or 7.5 mM weekly foliar spray

In the case of `CC/C=C\C[C@H]1C(=O)CC[C@@H]1CC(=O)OC` [MeJA, Methyl Jasmonate], the “CBDA increase relative to the control group” value [1] is reported as 5.36%, the “THCA increase relative to the control group” value [1] is reported as 5.36% and the “Total CBD increase relative to the control group” value [1] is reported as 5.75%. The “Total Cannabinoids increase relative to the control group” value [1] was 5.64%, the “Total THC increase relative to the control group” value [1] was 6.06% and the camphene (CBDRx Cherry variety) was “neither concentration of MeJA significantly altered”. The total terpene content (CBDRx Cherry variety) was “neither concentration of MeJA significantly altered”, the α-pinene (CBDRx Cherry variety) was “neither concentration of MeJA significantly altered” and the β-pinene (CBDRx Cherry variety) was “neither concentration of MeJA significantly altered”. For the same molecule, the eucalyptol [2] was “Significant increases”, the guaiol [2] was “Significant increases” and the α-bisabolol [2] was “Significant increases”. The D-Limonene [2] was “significantly decreased”, the Linalool [2] was “significantly increased” and the cis-B-ocimene [2] was “significantly decreased”. The “β-myrcene, α-pinene, camphene, β-pinene and total terpene content” value ([2]; only with the higher concentration of 7.5 mM) was “significant reduction”, the “growth of mold isolated from orange” value (Penicillium spp.) was “effective at preventing the growth” and the “growth of mold isolated from tomato” value [3] was “effective at preventing the growth”.

For `CCCCCC1C(=O)CCC1CC(=O)OC` (centres unmarked) [MDJ, methyl dihydrojasmonate], the “CBDA increase relative to the control group” value [1] was 16.53%, the “THCA increase relative to the control group” value [1] was 19.69% and the “Total CBD increase relative to the control group” value [1] was 16.62%. For the same molecule, the “Total Cannabinoids increase relative to the control group” value [1] was 16.38%, the “Total THC increase relative to the control group” value [1] was 19.61% and the camphene (CBDRx Cherry variety) was “significantly lowered”. The total terpene content (CBDRx Cherry variety) was “significantly lowered”, the α-pinene (CBDRx Cherry variety) was “significantly lowered” and the β-myrcene content (CBDRx Cherry variety) was “significantly lowered”. For the same molecule, the β-pinene (CBDRx Cherry variety) was “significantly lowered”, the eucalyptol [2] was “Significant increases” and the guaiol [2] was “Significant increases”. The α-bisabolol [2] was “Significant increases”, the camphene [2, 4] was “significantly lowered” and the p-pinene [2, 4] was “significantly lowered”. The total terpene content [2, 4] was “significantly lowered”, the α-pinene [2, 4] was “significantly lowered” and the β-myrcene content [2, 4] was “significantly lowered”. The D-Limonene [2] was “significantly decreased”, the Linalool [2] was “significantly increased” and the cis-B-ocimene [2] was “significantly decreased”. The “growth of mold isolated from orange” value (Penicillium spp.) was “effective at preventing the growth”, the “growth of mold isolated from tomato” value [3] was “effective at preventing the growth” and the “growth of mold isolated from strawberry” value (Botrytis spp.) was “effective at preventing the growth”. For the same molecule, the mold (strawberries; dip 1 M) was “prohibited mold for two weeks” and the mold (strawberries; dip 5, 10, 20 mM and control) was “mold in all groups after one week”.
